Patent US20210369664A1, “PROPHYLACTIC OR THERAPEUTIC AGENT FOR PULMONARY HYPERTENSION WHICH COMPRISES PPAR? AGONIST” (TOHOKU UNIVERSITY, priority 2016, published 2021)

How the values were obtained:
[1] = Average body weight of the administration groups in the hypoxia test; type: in vivo
Description: After the hypoxic stimulation for 3 weeks, a 1.2-Fr catheter (SciSense Inc., Ontario, Canada) was inserted in the jugular vein of the mice under isoflurane anesthesia and advanced into the right ventricle to measure a right ventricular systolic pressure. In addition, after the measurement of the right ventricular systolic pressure, the heart and the lungs were dissected. For the heart, the right ventricle and the left ventricle were separated and their weight ratio was measured to assess right ventricular hypertrophy. The average body weights of the Control group (PPARα agonist: −, Hypoxia [3 wks]: −), the Vehicle group (PPARα agonist: −, Hypoxia [3 wks]: +), and the WY-14643 administration group (PPARα agonist: +, Hypoxia [3 wks]: +) before the test were 29.2±1.2 g, 28.9±1.0 g, and 29.6±1.4 g, respectively. In addition, the average body weights of the Control group, the Vehicle group, and the WY-14643 administration group after the test were 32.1±2.1 g, 23.5±1.8 g, and 25.7±2.0 g, respectively.

[2] = tested on: hypoxia-induced pulmonary hypertension mice; settings: WY-14643 3 mg/kg/day by mixed feed
Description: Hypoxia-induced pulmonary hypertension mice serving as a model generally used in an animal experiment for pulmonary hypertension were administered a PPARα agonist (WY-14643, Sigma) at 3 mg/kg/day by mixed feed. Specifically, first, 8-week-old male wild-type mice (Balb/c mice, n=12 per group) were housed in a transparent acrylic box with an oxygen concentration controlled to 10% using a hypoxia generator (Teijin Limited, Japan) under a 12 h light and dark cycle. The mice were stimulated by hypoxia for 3 weeks, and a diet in this period was mixed with WY-14643 (the following solution was used as WY-14643: 1 mg of WY-14643 was dissolved in 0.1 ml of DMSO, and the solution of WY-14643 in DMSO was mixed with ultrapure water (mQ or ultrapure water) to prepare a 100 ml solution). The administration by mixed feed was performed at 3 mg/kg/day according to the previous report (Andrew D, et al. Hepatology. 2012; 56: 281-290). […] The following tests were also performed as controls: a test in which the mice were stimulated by hypoxia in the same manner as described above except that the mice were administered a 1:1,000 (V/V) mixed solution of DMSO and ultrapure water by mixed feed in place of WY-14643 as a diet; and a test in which the mice were administered the mixed solution of DMSO and ultrapure water by mixed feed in place of WY-14643 as a diet and were not stimulated by hypoxia.
After the hypoxic stimulation for 3 weeks, a 1.2-Fr catheter (SciSense Inc., Ontario, Canada) was inserted in the jugular vein of the mice under isoflurane anesthesia and advanced into the right ventricle to measure a right ventricular systolic pressure. In addition, after the measurement of the right ventricular systolic pressure, the heart and the lungs were dissected. For the heart, the right ventricle and the left ventricle were separated and their weight ratio was measured to assess right ventricular hypertrophy.
In addition, in tissue slides of the formalin-fixed lungs of each group, the number of pulmonary vessels including thrombi was counted for a field of about 100 mm^2, and the number of the pulmonary vessels including thrombi per 100 mm^2 was calculated. […] The resultant plasma sample was measured for its D-dimer concentration in plasma (unit: ng/ml) through the use of an ELISA kit (CEA506Mu manufactured by Life Science Inc.) according to the instruction of the kit. In addition, the plasma sample was measured for its thrombin-antithrombin complex (TAT) concentration in plasma (unit: pg/ml) through the use of an ELISA kit (SEA831Mu manufactured by Life Science Inc.) according to the instruction of the kit.
The dissected lungs were fixed with 10% formalin for 24 hours, and then 3 μm sections of the specimens were used to prepare slides. The slides were subjected to Elastica-Masson staining for staining elastic fiber in order to assess vessel wall thickening (remodeling). 60 to 80 distal pulmonary arteries having diameters of from 20 μm to 70 μm were observed per mouse, and their wall thickening was divided into 3 stages.

Compound	average body weight after the test ([1]; WY-14643 administration group, 3 mg/kg/day, after 3 weeks hypoxia, Example 1) [g]	thrombus formation (number of pulmonary vessels including thrombi per 100 mm^2) ([2]; chronic hypoxic stimulation 3 weeks, lung tissue slides (FIG. 2))	pulmonary hypertension (overall result) ([2]; hypoxia 3 weeks)	remodeling of distal pulmonary vessels (Elastica-Masson staining) ([2]; hypoxia 3 weeks (FIG. 3))	right ventricular hypertrophy (right ventricle/(left ventricle plus septum) weight ratio) ([2]; hypoxia 3 weeks, Balb/c mice (FIG. 1))	D-dimer/TAT ratio (indicator of impaired fibrinolytic capacity) ([2]; hypoxia 3 weeks, plasma, ELISA (FIG. 2))	right ventricular systolic pressure ([2]; hypoxia (10% oxygen) 3 weeks, Balb/c mice, vs vehicle (FIG. 1))	average body weight after the test ([1]; fenofibrate administration group, 50 mg/kg/day, Example 3) [g]
Cc1cccc(Nc2cc(Cl)nc(SCC(=O)O)n2)c1C [WY-14643, [[4-chloro-6-[(2,3-dimethylphenyl)amino]pyrimidin-2-yl]thio]acetic acid]	25.7 ± 2.0	suppressed the increase in thrombus formation	ameliorated pulmonary hypertension	significant reduction	Significant reductions	its reduction was found	Significant reductions	
CC(C)OC(=O)C(C)(C)Oc1ccc(C(=O)c2ccc(Cl)cc2)cc1 [fenofibrate, isopropyl 2-[4-(4-chlorobenzoyl)phenoxy]-2-methylpropionate]								334.30 ± 20.67
